From US6828092B1 (priority 1995, dated 2004)

Assays:
[1] = tested on: ACoAT promoter-β-galactosidase reporter gene in yeast strain MEY133::pACoAT (sterol biosynthesis); assay: Reporter gene (β-galactosidase) induction assay in reporter yeast strain; type: cell-based, S. cerevisiae; details: for concentration above which reporter gene activity is induced: 24 hours at 30° C.; for reporter gene induction per cell: relative to basal
Protocol: Reporter gene induction is defined as:
where f refers to a final reading, and i to an initial reading. 100 to a concentration of 100 μg/ml and 10 to a concentration of 10 ng/ml. Reporter gene induction per cell is defined as: […]
(§1) Reporter gene activity assays (β-galactosidase assays) were performed using a single step procedure with the substrate chlorophenol red-β-D-galactopyranoside (CPRG, Boehringer): this substrate gives rise to a red product when cleaved by β-galactosidase. The appearance of this product can assessed by monitoring the optical density at 570 nm (OD570). The assays were performed in the wells of microtitre plates containing 200 μi of yeast in uracil-deficient medium. 50 μl of reaction mix was added to these wells, and immediately after this the absorption at 570 nm was measured using a Molecular Devices plate reader. Reaction mix was prepared as follows. 10×Z buffer (Ausabel et al) was prepared by dissolving 85.2 g Na2HPO4, 62.4 g NaH2PO4.2H2O, 7.5 g KCl and 2.46 g MgSO4.7H2O in 500 mls water. 2.7 mls β-mercaptoethanol was added to this solution and mixed. The pH was adjusted to pH 7 using 5M NaOH and the volume made up to 1 litre with water. 200 mls of reaction buffer was made by mixing 100 mls 10×Z buffer, 1.0 ml of 20% (w/v) sodium docedyl sulphate, 10 mls 50 mM CPRG and 89 mls water. After 2 hours a final OD570 reading was taken. Over this time frame, using the yeast strains descibed below, the rate of change of OD570 was constant. Therefore OD570final minus OD570 initial is taken as a measure of total reporter gene activity. OD570 initial is taken as a measurement of the number of cells in the culture, and reporter gene activity per cell is calculated as […].
Maximal induction of reporter gene activity by terbinafine in MEY133::pACoAT was obtained by:
(1) thawing a 1 ml aliquot of frozen stock and adding it to 100 ml of uracil deficient medium in a 500 ml conical flask and incubating for 24 hours at 30° C. with agitation to aerate the culture.
(2) diluting a sample of this culture with uracil deficient medium to give 100 mls of a culture with an optical density at 600 nm of 1.0 units, and incubating this culture for a further 24 hours in an incubator at 30° C. with agitation.
(§2) (3) diluting a sample of this culture with uracil deficient medium to give a culture with an optical density at 600 nm of 0.35 units. This culture was dispensed into 96 well flat-bottomed mucrotitre plates containing compounds. Each well contained 20 μl compound dissolved in 10% (v/v) dimethylsulphoxide. 180 μl culture was added each well. The plates were sealed with Titertex plate sealers and incubated for 24 hours at 30° C.
(§3) (4) The plates were removed from the incubator, and shaken to resuspend the yeast. The platesealers were removed and […] reaction mix added to each well. An initial OD570 reading was taken immediately following this addition. After a further two hours a final OD570 reading was taken. Optical density readings were taken with a Molecular Devices platereader using Softmax software. The machine was set to automatically agitate the samples before taking the reading.
(§4) The reporter gene in the yeast strain MEY133::ACoAT is induced by a range of sterol biosynthesis inhibitor. FIGS. 2-10 present dose-responses to nine different sterol biosynthesis inhibitors. The measurements of reporter gene activity and growth were obtained using the standard procedure described above. Each point on the graph is the average of three measurements, standard deviations being indicated by the error bars. In the absence of sterol biosynthesis inhibitors, a basal activity of the reporter gene is observed. This corresponds to a change in OD570 of 0.23 units/two hours (average of 15 measurements). During the period of time of the incubation the yeast cells grow to a density of 0.86 OD570 units (average of 15 measurements).

[2] = tested on: Squalene synthase; details: S. cerevisiae, application of inhibitor; cited from earlier work
[3] = tested on: ACoAT promoter-β-galactosidase reporter gene in yeast strain MEY133::pACoAT (sterol biosynthesis); assay: Reporter gene (β-galactosidase) induction assay in reporter yeast strain; type: cell-based, S. cerevisiae
[4] = tested on: yeast strain MEY133::pACoAT; assay: Growth of reporter yeast strain (OD570); type: cell-based, S. cerevisiae; details: OD570, 24 hours incubation
Protocol: Reporter gene activity (OD570final−OD570initial) is indicated by solid squares. Growth (OD570 final) is indicated by open squares. Each point is the average of three measurements. Error bars indicate standard deviations.
as §1, §2, §3, §4

[5] = tested on: lanosterol 14-a-demethylase gene induction; details: HMG1-deleted yeast; cited from earlier work

Row | SMILES | concentration above which reporter gene activity is induced ([1]; MEY133::pACoAT, dose-response) | reporter gene activity response (in words) ([1]; MEY133::pACoAT) | growth inhibition (in words) [4] | other results
1 | CC[C@H](C)C(=O)O[C@H]1C[C@@H](C)C=C2C=C[C@H](C)[C@H](CC[C@@H]3C[C@@H](O)CC(=O)O3)[C@H]21 [Lovastatin] | above 1 μg/ml | – | – | reporter gene induction per cell [1]: 5 fold; increase of squalene synthase levels [2]: 2-3 fold
2 | CCCCCCN1CCCC(Cc2ccc(C(C)(C)C)cc2)C1 (centres unmarked) [3-(4-t-butylbenzyl)-(N-hexyl)-piperidine] | above 10 μg/ml | very sharp | – | –
3 | Nc1nc(=O)[nH]cc1F [5-flucytosine] | – | do not induce reporter gene activity | – | –
4 | CN(Cc1ccc(C(C)(C)C)cc1)Cc1cccc2ccccc12 [4-t-butyl-N-methyl-N-(I-naphthylmethyl)benzylamine] | – | – | – | reporter gene induction compared with terbinafine ([1]; at 100 μg/ml): to the same extent as terbinafine; reporter gene induction compared with terbinafine ([3]; at 10 μg/ml): much less active than terbinafine
5 | C[C@@H]1[C@H](O)[C@@H](C)/C=C/C=C/C=C/C=C/C=C/C=C/C=C/[C@H](O[C@@H]2O[C@H](C)[C@@H](O)[C@H](N)[C@@H]2O)C[C@@H]2O[C@](O)(C[C@@H](O)C[C@@H](O)[C@H](O)CC[C@@H](O)C[C@@H](O)CC(=O)O[C@H]1C)C[C@H](O)[C@H]2C(=O)O [amphotericin B] | – | do not induce reporter gene activity | – | –
6 | C=C(CC[C@]12O[C@H](C(=O)O)[C@@](O)(C(=O)O)[C@](C(=O)O)(O1)[C@H](OC(=O)/C=C/[C@@H](C)C[C@@H](C)CC)[C@H]2O)[C@@H](OC(C)=O)[C@H](C)Cc1ccccc1 [Squalestatin] | – | biphasic response | growth inhibitory effect of squalestatin at higher concentrations | concentration of maximal reporter gene induction ([1]; MEY133::pACoAT, dose-response): 10 µg/mL; reporter gene activity per cell, comparison of concentrations ([3]; 10 μg/ml versus 100 μg/ml): almost identical
7 | Cc1cccc(N(C)C(=S)Oc2ccc3ccccc3c2)c1 [tolnaftate] | – | – | – | detection in Kirsch screen [5]: not detected
8 | CCC(C)(C)c1ccc(CC(C)CN2C[C@@H](C)O[C@@H](C)C2)cc1 (some centres unmarked) [Amorolfine] | above 1 μg/ml | – | some growth inhibitory properties | –
9 | CC(Cc1ccc(C(C)(C)C)cc1)CN1C[C@@H](C)O[C@@H](C)C1 (some centres unmarked) [Fenpropimorph] | – | induces reporter gene activity | inhibiting growth to some extent | –
10 | CN(C/C=C/C#CC(C)(C)C)Cc1cccc2ccccc12 [Terbinafine] | above 1 μg/ml | – | inhibits growth to a limited extent | reporter gene induction per cell [1]: 9 fold
11 | OC(Cn1cncn1)(c1ccc(F)cc1)c1ccccc1F (centres unmarked) [Flutriafol] | – | – | Some growth inhibition | concentration at which detectable reporter gene induction occurs ([1]; MEY133::pACoAT, dose-response): 0.1 µg/mL
